In US8841450B2, “Compounds useful as inhibitors of ATR kinase” (Vertex Pharmaceuticals Incorporated, priority 2011, dated 2014):
pKi: −log10 of the molar value.

Molecular target: ATR kinase (Homo sapiens (Human), UniProt Q13535)
Experiment: ATR Inhibition Assay (radioactive-phosphate incorporation)
Format: biochemical
Details: Ki(app); 5 nM full-length ATR, 10 μM [γ-33P]ATP, 800 μM target peptide, 25° C.
Description: Compounds were screened for their ability to inhibit ATR kinase using a radioactive-phosphate incorporation assay. Assays were carried out in a mixture of 50 mM Tris/HCl (pH 7.5), 10 mM MgCl2 and 1 mM DTT. Final substrate concentrations were 10 μM [γ-33P]ATP (3mCi 33P ATP/mmol ATP, Perkin Elmer) and 800 μM target peptide (ASELPASQPQPFSAKKK).
Assays were carried out at 25° C. in the presence of 5 nM full-length ATR. An assay stock buffer solution was prepared containing all of the reagents listed above, with the exception of ATP and the test compound of interest. 13.5 μL of the stock solution was placed in a 96 well plate followed by addition of 2 μL of DMSO stock containing serial dilutions of the test compound (typically starting from a final concentration of 15 μM with 3-fold serial dilutions) in duplicate (final DMSO concentration 7%). The plate was pre-incubated for 10 minutes at 25° C. and the reaction initiated by addition of 15 μL [γ-33P]ATP (final concentration 10 μM).
The reaction was stopped after […] by the addition of 30 μL 0.1M phosphoric acid containing 2 mM ATP. […]
After removing mean background values for all of the data points, Ki(app) data were calculated from non-linear regression analysis of the initial rate data using the Prism software package (GraphPad Prism version 3.0cx for Macintosh, GraphPad Software, San Diego, Calif., USA).

Chain of ATR kinase (Q13535 whole entry): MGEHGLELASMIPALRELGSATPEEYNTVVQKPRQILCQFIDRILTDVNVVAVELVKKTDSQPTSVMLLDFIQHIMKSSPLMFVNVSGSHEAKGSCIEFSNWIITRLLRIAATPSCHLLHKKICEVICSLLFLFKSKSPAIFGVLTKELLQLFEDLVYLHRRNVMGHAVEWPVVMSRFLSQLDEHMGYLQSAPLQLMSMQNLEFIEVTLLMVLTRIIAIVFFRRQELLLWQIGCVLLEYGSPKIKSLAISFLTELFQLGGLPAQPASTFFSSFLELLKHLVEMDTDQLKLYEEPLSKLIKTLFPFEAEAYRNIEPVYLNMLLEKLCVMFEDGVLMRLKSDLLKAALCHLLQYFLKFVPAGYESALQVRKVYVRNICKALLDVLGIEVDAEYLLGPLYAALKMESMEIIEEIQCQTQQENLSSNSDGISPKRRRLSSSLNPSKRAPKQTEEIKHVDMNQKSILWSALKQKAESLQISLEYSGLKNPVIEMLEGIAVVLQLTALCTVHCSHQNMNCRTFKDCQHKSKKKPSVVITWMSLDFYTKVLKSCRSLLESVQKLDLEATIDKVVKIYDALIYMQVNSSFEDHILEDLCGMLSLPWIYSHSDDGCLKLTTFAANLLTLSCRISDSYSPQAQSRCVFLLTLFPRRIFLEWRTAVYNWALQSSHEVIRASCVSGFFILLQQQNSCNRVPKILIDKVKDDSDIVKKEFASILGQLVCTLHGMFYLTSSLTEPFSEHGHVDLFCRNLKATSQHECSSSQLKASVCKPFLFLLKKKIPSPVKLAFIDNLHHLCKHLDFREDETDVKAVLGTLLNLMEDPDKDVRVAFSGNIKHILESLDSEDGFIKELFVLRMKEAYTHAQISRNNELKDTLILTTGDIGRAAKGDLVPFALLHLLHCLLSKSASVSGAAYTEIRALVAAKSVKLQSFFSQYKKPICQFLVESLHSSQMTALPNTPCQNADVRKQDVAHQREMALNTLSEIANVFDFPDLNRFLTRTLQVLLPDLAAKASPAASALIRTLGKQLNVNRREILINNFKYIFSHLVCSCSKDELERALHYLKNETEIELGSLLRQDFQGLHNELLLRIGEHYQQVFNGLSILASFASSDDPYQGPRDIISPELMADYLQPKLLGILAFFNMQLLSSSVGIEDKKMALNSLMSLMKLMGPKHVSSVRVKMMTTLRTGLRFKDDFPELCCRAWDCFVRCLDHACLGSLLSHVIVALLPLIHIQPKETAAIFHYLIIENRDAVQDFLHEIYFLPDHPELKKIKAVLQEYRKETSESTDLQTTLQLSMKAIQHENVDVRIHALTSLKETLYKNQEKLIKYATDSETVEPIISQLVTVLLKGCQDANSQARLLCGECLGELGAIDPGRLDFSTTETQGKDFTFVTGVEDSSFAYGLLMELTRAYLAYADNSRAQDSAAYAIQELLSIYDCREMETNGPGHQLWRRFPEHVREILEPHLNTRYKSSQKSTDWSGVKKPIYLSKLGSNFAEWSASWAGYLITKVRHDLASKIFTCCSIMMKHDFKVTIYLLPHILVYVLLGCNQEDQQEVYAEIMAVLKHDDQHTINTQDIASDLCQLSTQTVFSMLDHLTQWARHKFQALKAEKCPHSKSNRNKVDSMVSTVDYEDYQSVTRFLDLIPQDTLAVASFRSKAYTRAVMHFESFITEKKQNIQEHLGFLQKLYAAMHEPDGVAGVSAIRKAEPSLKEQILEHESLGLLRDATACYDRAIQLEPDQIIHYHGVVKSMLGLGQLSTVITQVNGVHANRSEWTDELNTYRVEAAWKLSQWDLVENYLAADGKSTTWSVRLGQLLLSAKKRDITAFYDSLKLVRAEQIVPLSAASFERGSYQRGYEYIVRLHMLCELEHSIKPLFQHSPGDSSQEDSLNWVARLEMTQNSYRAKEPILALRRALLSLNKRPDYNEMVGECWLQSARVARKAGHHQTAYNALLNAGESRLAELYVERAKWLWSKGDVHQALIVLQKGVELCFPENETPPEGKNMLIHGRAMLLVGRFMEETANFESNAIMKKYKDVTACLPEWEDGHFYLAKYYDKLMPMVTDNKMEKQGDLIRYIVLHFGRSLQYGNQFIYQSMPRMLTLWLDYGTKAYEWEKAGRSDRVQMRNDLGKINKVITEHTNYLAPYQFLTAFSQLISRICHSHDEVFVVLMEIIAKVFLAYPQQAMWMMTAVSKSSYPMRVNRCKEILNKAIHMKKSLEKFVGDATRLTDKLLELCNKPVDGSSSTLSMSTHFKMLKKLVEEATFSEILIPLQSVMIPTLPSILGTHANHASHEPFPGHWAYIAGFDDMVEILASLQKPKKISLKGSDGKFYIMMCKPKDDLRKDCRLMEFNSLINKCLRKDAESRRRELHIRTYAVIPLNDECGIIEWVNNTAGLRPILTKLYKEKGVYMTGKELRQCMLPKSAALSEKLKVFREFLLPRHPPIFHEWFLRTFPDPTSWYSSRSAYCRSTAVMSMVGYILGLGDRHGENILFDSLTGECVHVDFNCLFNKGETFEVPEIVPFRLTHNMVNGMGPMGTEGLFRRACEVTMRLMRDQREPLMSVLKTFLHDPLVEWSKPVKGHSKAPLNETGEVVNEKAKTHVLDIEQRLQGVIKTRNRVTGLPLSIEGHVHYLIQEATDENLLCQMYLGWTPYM

pKi: 7.80
SMILES: CC(C)S(=O)(=O)c1ccc(-c2cnc(N)c(C3CC(c4ccccc4)=NO3)n2)cc1 (stereo not shown) [Compound I-1, 5-(4-(isopropylsulfonyl)phenyl)-3-(3-phenyl-4,5-dihydroisoxazol-5-yl)pyrazin-2-amine]
